Patent US20260274785A1, “CYCLOHEXYL OR HETEROCYCLOALKYL BETA-HYDROXY ALKYL AMINES FOR USE IN THE TREATMENT OF HYPERGLYCAEMIA AND DISORDERS CHARACTERISED BY HYPERGLYCAEMIA” (ATROGI AB, priority 2023, published 2026)
Where a name gives a salt, the structure may show the parent alone.

Tests used:
[1] = test system: L6-myotubes; test: Measurement of intracellular cAMP levels in differentiated L6 cells; assay type: cell-based; details: Rattus norvegicus, 0.25 h, agonist final concentration 1×10^−5 M, 15 min, alpha screen cAMP kit, read-out: Biological example 2: intracellular cAMP levels, activity compared to that of isoproterenol
Description: (§1) L6-myoblasts were grown in Dulbecco's Modified Eagle's Medium (DMEM) containing 1 g/L glucose supplemented with 10% fetal bovine serum, 2 mM L-Glutamine, 50 U/mL penicillin, 50 μg/mL streptomycin and 10 mM HEPES. Cells were plated at 1×10^5 cells per mL in 24-well plates. After reaching 90% confluence the cells were grown in medium containing 2% FBS for 7 days where upon cells differentiated into myotubes.
Differentiated cells were serum-starved overnight and stimulated with an agonist, final concentration 1×10^−5 M, for 15 min in stimulation buffer (HBSS supplemented with 1% BSA, 5 mM HEPES and 1 mM IBMX, pH 7.4). The medium was aspirated and 100 μL of 95% EtOH was added to each well of the 24-well plate and cells were kept at −20° C. overnight. The EtOH was allowed to evaporate and 500 μL of lysis buffer (1% BSA, 5 mM HEPES and 0.3% Tween-20, pH 7.4) was added to each well. The plate was kept at −80° C. for 30 min and then at −20° C. until the day of detection when the samples were thawed. Intracellular cAMP levels were detected using an alpha screen cAMP kit (6760635D from Perkin Elmer). The activity for each compound is compared to that of isoproterenol.

[2] = test system: L6-myotubes; test: Glucose uptake (3H-2-deoxyglucose) in differentiated L6-myotubes; assay type: cell-based; details: agonist final concentration 1×10^−5 M, 3H-2-deoxyglucose uptake, read-out: Biological example 1: glucose uptake, activity compared to that of isoproterenol
Description: as §1
Differentiated L6-myotubes were serum-starved overnight in medium containing 0.5% fatty-acid free BSA and stimulated with an agonist, with a final concentration of 1×10^−5 M. After 1 h 40 min the cells were washed with warm glucose free medium or PBS twice and another portion of agonist was added to the glucose free medium. After 20 min the cells were exposed to 50 nM ^3H-2-deoxyglucose for another 10 min before washed in ice cold glucose free medium or PBS three times and lysed in 400 μL/well 0.2 M NaOH for 1 h at 60° C. The cell lysate was mixed with 4 mL scintillation buffer (Emulsifier Safe, Perkin Elmer) and the radioactivity was detected in a β-counter (Tri-Carb 4810TR, Perkin Elmer). The activity for each compound is compared to that of isoproterenol.

Row | SMILES | Emax at 10 µM [1] [%] | Emax at 10 µM [2] [%]
1 | CC(=O)NC(C)(C)C[C@H]1CC[C@@H](NC[C@H](O)c2cncc(F)c2)CC1 [Example 3, N-(1-((cis)-4-(((R)-2-(5-Fluoropyridin-3-yl)-2-hydroxyethyl)amino)-cyclohexyl)-2-methylpropan-2-yl)acetamide] | < 25 | > 75
2 | CC(=O)N1CCC(C)(NC[C@H](O)c2cncc(F)c2)CC1 [Example 7, (R)-1-(4-((2-(5-Fluoropyridin-3-yl)-2-hydroxyethyl)amino)-4-methyl-piperidin-1-yl)ethan-1-one] | < 25 | 50 to 75
3 | O=C(O)CO[C@H]1CC[C@H](NC[C@H](O)c2cccc(F)c2)CC1 [Example 10, 2-(((trans)-4-(((R)-2-(3-Fluorophenyl)-2-hydroxyethyl)amino)-cyclohexyl)oxy)acetic acid] | < 25 | 25 to 50
4 | CN(C)C(=O)N1CCC(C)(NC[C@H](O)c2cccc(F)c2)CC1 [Example 24, (R)-4-((2-(3-Fluorophenyl)-2-hydroxyethyl)amino)-N,N,4-trimethyl-piperidine-1-carboxamide acetate] | – | > 75
5 | CC(C)(C[C@H]1CC[C@@H](NC[C@H](O)c2cccc(F)c2)CC1)NS(C)(=O)=O [Example 2, N-(1-((cis)-4-(((R)-2-(3-fluorophenyl)-2-hydroxyethyl)amino)-cyclohexyl)-2-methylpropan-2-yl)methanesulfonamide] | < 25 | < 25
6 | CC(=O)N[C@H]1CC[C@H](NC[C@H](O)c2cccc(F)c2)CC1 [Example 15, N-((trans)-4-(((R)-2-(3-Fluorophenyl)-2-hydroxyethyl)amino)-cyclohexyl)acetamide] | < 25 | 25 to 50
7 | CC(=O)N1CCC(C)(NC[C@H](O)c2cccc(F)c2)CC1 [Example 5, (R)-1-(4-((2-(3-Fluorophenyl)-2-hydroxyethyl)amino)-4-methyl-piperidin-1-yl)ethan-1-one] | < 25 | 25 to 50
8 | CS(=O)(=O)N[C@H]1CC[C@@H](NC[C@H](O)c2cncc(F)c2)CC1 [Example 14, N-((cis)-4-(((R)-2-(5-Fluoropyridin-3-yl)-2-hydroxyethyl)amino)-cyclohexyl)methanesulfonamide] | < 25 | > 75
9 | CC(=O)N[C@H]1CC[C@@H](NC[C@H](O)c2cncc(F)c2)CC1 [Example 12, N-((cis)-4-(((R)-2-(5-Fluoropyridin-3-yl)-2-hydroxyethyl)amino)-cyclohexyl)acetamide] | < 25 | > 75
10 | CS(=O)(=O)N[C@H]1CC[C@H](NC[C@H](O)c2cccc(F)c2)CC1 [Example 17, N-((trans)-4-(((R)-2-(3-Fluorophenyl)-2-hydroxyethyl)amino)-cyclohexyl)methanesulfonamide] | < 25 | 50 to 75
11 | CC1(NC[C@H](O)c2cccc(F)c2)CCN(S(C)(=O)=O)CC1 [Example 6, (R)-1-(3-Fluorophenyl)-2-((4-methyl-1-(methylsulfonyl)piperidin-4-yl)-amino)ethan-1-ol] | < 25 | > 75
12 | CC(=O)N[C@H]1CC[C@H](NC[C@H](O)c2cncc(F)c2)CC1 [Example 16, N-((trans)-4-(((R)-2-(5-Fluoropyridin-3-yl)-2-hydroxyethyl)amino)-cyclohexyl)acetamide] | < 25 | 25 to 50
13 | COC(=O)CS(=O)(=O)N1CCC(C)(NC[C@H](O)c2cccc(F)c2)CC1 [Example 21, Methyl (R)-2-((4-((2-(3-fluorophenyl)-2-hydroxyethyl)amino)-4-methylpiperidin-1-yl)sulfonyl)acetate hydrochloride] | 25 to 50 | > 75
14 | COC(=O)CN1CCC(C)(NC[C@H](O)c2cccc(F)c2)CC1 [Example 19, Methyl (R)-2-(4-((2-(3-fluorophenyl)-2-hydroxyethyl)amino)-4-methyl-piperidin-1-yl)acetate dihydrochloride] | > 75 | > 75
15 | CC1(NC[C@H](O)c2cccc(F)c2)CCN(CC(=O)O)CC1 [Example 20, (R)-2-(4-((2-(3-Fluorophenyl)-2-hydroxyethyl)amino)-4-methyl-piperidin-1-yl)acetic acid acetate] | < 25 | 50 to 75
16 | CCOC(=O)CO[C@H]1CC[C@H](NC[C@H](O)c2cccc(F)c2)CC1 [Example 9, Ethyl 2-(((trans)-4-(((R)-2-(3-fluorophenyl)-2-hydroxyethyl)amino)-cyclohexyl)oxy)acetate] | < 25 | 25 to 50
17 | CC1(NC[C@H](O)c2cncc(F)c2)CCN(S(C)(=O)=O)CC1 [Example 8, (R)-1-(5-Fluoropyridin-3-yl)-2-((4-methyl-1-(methylsulfonyl)piperidin-4-yl)amino)ethan-1-ol dihydrochloride] | 25 to 50 | > 75
18 | CS(=O)(=O)N[C@H]1CC[C@@H](NC[C@H](O)c2cccc(F)c2)CC1 [Example 13, N-((cis)-4-(((R)-2-(3-Fluorophenyl)-2-hydroxyethyl)amino)cyclohexyl)-methanesulfonamide hydrochloride] | < 25 | 50 to 75
19 | CC(=O)NC(C)(C)C[C@H]1CC[C@@H](NC[C@H](O)c2cccc(F)c2)CC1 [Example 1, N-(1-((cis)-4-(((R)-2-(3-Fluorophenyl)-2-hydroxyethyl)amino)-cyclohexyl)-2-methylpropan-2-yl)acetamide] | < 25 | 50 to 75
20 | CCCCS(=O)(=O)N1CCC(C)(NC[C@H](O)c2cccc(F)c2)CC1 [Example 23, (R)-2-((1-(Butylsulfonyl)-4-methylpiperidin-4-yl)amino)-1-(3-fluoro-phenyl)ethan-1-ol acetate] | 25 to 50 | > 75
21 | CC(C)(C[C@H]1CC[C@@H](NC[C@H](O)c2cncc(F)c2)CC1)NS(C)(=O)=O [Example 4, N-(1-((cis)-4-(((R)-2-(5-Fluoropyridin-3-yl)-2-hydroxyethyl)amino)-cyclohexyl)-2-methylpropan-2-yl)methanesulfonamide] | < 25 | 50 to 75
22 | CS(=O)(=O)N[C@H]1CC[C@H](NC[C@H](O)c2cncc(F)c2)CC1 [Example 18, N-((trans)-4-(((R)-2-(5-fluoropyridin-3-yl)-2-hydroxyethyl)amino)-cyclohexyl)methanesulfonamide] | < 25 | 50 to 75
23 | CC(=O)N[C@H]1CC[C@@H](NC[C@H](O)c2cccc(F)c2)CC1 [Example 11, N-((cis)-4-(((R)-2-(3-fluorophenyl)-2-hydroxyethyl)amino)-cyclohexyl)acetamide] | < 25 | 50 to 75
24 | CC1(NC[C@H](O)c2cccc(F)c2)CCN(S(=O)(=O)CC(=O)O)CC1 [Example 22, (R)-2-((4-((2-(3-Fluorophenyl)-2-hydroxyethyl)amino)-4-methyl-piperidin-1-yl)sulfonyl)acetic acid] | < 25 | > 75
